Experimental data taken from patent US9951049B2, “Pyrazole linked benzimidazole conjugates and a process for preparation thereof” (Council of Scientific & Industrial Reseach, priority 2014, dated 2018).
Where two headings read alike, the source gives them in different places.

What was measured:
HCT-15 = assay: NCI SRB screen, HCT-15; conditions: Homo sapiens, HCT-15, 48 h, read-out: GI50 values
NCI-H460 = assay: NCI SRB screen, NCI-H460; conditions: Homo sapiens, NCI-H460, 48 h, read-out: GI50 values
MALME-3M = assay: NCI SRB screen, MALME-3M; conditions: Homo sapiens, 48 h, read-out: GI50 values
SR = assay: NCI SRB screen, SR; conditions: Homo sapiens, 48 h, read-out: GI50 values
U251 = assay: NCI SRB screen, U251; conditions: Homo sapiens, U-251, 48 h, read-out: GI50 values
OVCAR-3 = assay: NCI SRB screen, OVCAR-3; conditions: Homo sapiens, OVCAR-3, 48 h, read-out: GI50 values
HL-60(TB) = assay: NCI SRB screen, HL-60(TB); type: cell-based; conditions: Homo sapiens, Leukemia, 48 h
NCI-H522 = assay: NCI SRB screen, NCI-H522
RXF 393 = assay: NCI SRB screen, RXF 393; conditions: Homo sapiens, RXF 393, 48 h, read-out: GI50 values
T-47D = assay: NCI SRB screen, T-47D; conditions: Homo sapiens, T47D, 48 h, read-out: GI50 values
MDA-MB-231/ATCC = assay: NCI SRB screen, MDA-MB-231/ATCC; conditions: Homo sapiens, MDA-MB-231, 48 h, read-out: GI50 values
SK-MEL-28 = assay: NCI SRB screen, SK-MEL-28; conditions: Homo sapiens, SK-MEL-28, 48 h, read-out: GI50 values
RPMI-8226 = assay: NCI SRB screen, RPMI-8226; conditions: Homo sapiens, RPMI-8226, 48 h, read-out: GI50 values
SF-268 = assay: NCI SRB screen, SF-268; conditions: Homo sapiens, SF-268, 48 h, read-out: GI50 values
MDA-MB-435 = assay: NCI SRB screen, MDA-MB-435 (Melanoma panel); conditions: Homo sapiens, MDA-MB-435, 48 h, read-out: GI50 values
SN12C = assay: NCI SRB screen, SN12C; conditions: Homo sapiens, 48 h, read-out: GI50 values
NCIH322M = assay: NCI SRB screen, NCIH322M; conditions: Homo sapiens, NCI-H322M, 48 h, read-out: GI50 values
[1] = tested on: Non-small-cell lung cancer cell lines; assay: NCI SRB screen, Non-small-cell lung panel average; conditions: Homo sapiens, 48 h, read-out: Log10 GI50 (converted)
PC-3 = assay: NCI SRB screen, PC-3; conditions: Homo sapiens, PC-3, 48 h, read-out: GI50 values
UO-31 = assay: NCI SRB screen, UO-31; conditions: Homo sapiens, UO-31, 48 h, read-out: GI50 values
HT29 = assay: NCI SRB screen, HT29; conditions: Homo sapiens, HT-29, 48 h, read-out: GI50 values
OVCAR-4 = assay: NCI SRB screen, OVCAR-4; conditions: Homo sapiens, OVCAR-4, 48 h, read-out: GI50 values
SK-OV-3 = assay: NCI SRB screen, SK-OV-3; conditions: Homo sapiens, SK-OV-3, 48 h, read-out: GI50 values
CCRF-CEM = assay: NCI SRB screen, CCRF-CEM; conditions: Homo sapiens, 48 h, read-out: GI50 values
COLO-205 = assay: NCI SRB screen, COLO-205; conditions: Homo sapiens, COLO 205, 48 h, read-out: GI50 values
786-0 = assay: NCI SRB screen, 786-0; conditions: Homo sapiens, 786-0, 48 h, read-out: GI50 values
[2] = tested on: Ovarian cancer cell lines; assay: NCI SRB screen, Ovarian panel average; conditions: Homo sapiens, 48 h, read-out: Log10 GI50 (converted)
SF-295 = assay: NCI SRB screen, SF-295; conditions: Homo sapiens, SF-295, 48 h, read-out: GI50 values
TK-10 = assay: NCI SRB screen, TK-10; conditions: Homo sapiens, TK-10, 48 h, read-out: GI50 values
Breast Cancer cell lines = assay: NCI SRB screen, Breast Cancer panel average; conditions: Homo sapiens, 48 h, read-out: Log10 GI50 (converted)
Leukemia cell lines = assay: NCI SRB screen, Leukemia panel average; conditions: Homo sapiens, 48 h, read-out: Log10 GI50 (converted)
A498 = assay: NCI SRB screen, A498; conditions: Homo sapiens, A498, 48 h, read-out: GI50 values
A549/ATCC = assay: NCI SRB screen, A549/ATCC; conditions: Homo sapiens, A549, 48 h, read-out: GI50 values
[3] = Homo sapiens, NCI-H522, 48 h, read-out: GI50 values, Non-small cell lung, NCI-H522

SMILES	GI50 (HCT-15)	GI50 (NCI-H460)	GI50 (MALME-3M)	GI50 (SR)	GI50 (U251)	GI50 (OVCAR-3)	GI50 (HL-60(TB))	GI50 (NCI-H522; [3])	GI50 (RXF 393)	GI50 (T-47D)	GI50 (MDA-MB-231/ATCC)	GI50 (SK-MEL-28)	GI50 (RPMI-8226)	GI50 (SF-268)	GI50 (MDA-MB-435)	GI50 (SN12C)	GI50 (NCIH322M)	GI50 [1]	GI50 (PC-3)	GI50 (UO-31)	also measured
c1ccc2[nH]c(-c3cc(-c4ccc5c(c4)OCO5)n[nH]3)nc2c1 [6g, 2-(3-(benzo[d][1,3]dioxol-5-yl)-1H-pyrazol-5-yl)-1H-benzo[d]imidazole]	3.86 µM	4.57 µM	2330 nM	3.37 µM	2370 nM	3.21 µM	2270 nM	1980 nM	2360 nM	3320 nM	4.12 µM	4.85 µM	1140 nM	4.77 µM	3120 nM	3.73 µM	6.29 µM	4.57 µM	3640 nM	3980 nM	GI50 (HT29): 3.66 µM; GI50 (OVCAR-4): 2160 nM; GI50 (SK-OV-3): 4.98 µM; GI50 (CCRF-CEM): 2520 nM; GI50 (COLO-205): 4.78 µM; GI50 (786-0): 4.58 µM; GI50 [2]: 4.37 µM; GI50 (SF-295): 3.24 µM; GI50 (TK-10): 1090 nM; GI50 (Breast Cancer cell lines): 3390 nM; GI50 (Leukemia cell lines): 2510 nM; GI50 (A498): 1700 nM; GI50 (A549/ATCC): 4230 nM
COc1cc(-c2cc(-c3nc4ccccc4[nH]3)[nH]n2)cc(OC)c1OC [6f, 2-(3-(3,4,5-trimethoxyphenyl)-1H-pyrazol-5-yl)-1H-benzo[d]imidazole]	3.43 µM	3.64 µM	1950 nM	3.32 µM	3730 nM	4 µM	2540 nM	1840 nM	1770 nM	1110 nM	3.22 µM	2.72 µM	1200 nM	6.43 µM	2350 nM	3.91 µM	2.85 µM	2.4 µM	2100 nM	2210 nM	GI50 (NCI-H522; read-out: GI50 values, Non-small cell lung, NCI-H522, 48 h): 1870 nM; GI50 (HT29): 7.16 µM; GI50 (OVCAR-4): 1260 nM; GI50 (SK-OV-3): 3.48 µM; GI50 (CCRF-CEM): 2120 nM; GI50 (COLO-205): 3.98 µM; GI50 (786-0): 3.66 µM; GI50 [2]: 3.24 µM; GI50 (SF-295): 3.13 µM; GI50 (TK-10): 4070 nM; GI50 (Breast Cancer cell lines): 2240 nM; GI50 (Leukemia cell lines): 2290 nM; GI50 (A498): 1510 nM; GI50 (A549/ATCC): 2430 nM
Fc1ccc2[nH]c(-c3cc(-c4ccc5c(c4)OCO5)n[nH]3)nc2c1 [7g, 2-(3-(benzo[d][1,3]dioxol-5-yl)-1H-pyrazol-5-yl)-5-fluoro-1H-benzo[d]imidazole]	3.73 µM	6.06 µM	2750 nM	4.95 µM	2780 nM	5.32 µM	2740 nM	2560 nM	3020 nM	3210 nM	2.22 µM	8.87 µM	1090 nM	6.05 µM	5430 nM	4.95 µM	6.88 µM	5.37 µM	3780 nM	2930 nM	GI50 (HT29): 5.77 µM; GI50 (OVCAR-4): 1370 nM; GI50 (SK-OV-3): 1.24 µM; GI50 (CCRF-CEM): 2650 nM; GI50 (COLO-205): 8.11 µM; GI50 (786-0): 7.13 µM; GI50 [2]: 6.17 µM; GI50 (SF-295): 4.2 µM; GI50 (TK-10): 1300 nM; GI50 (Breast Cancer cell lines): 3630 nM; GI50 (Leukemia cell lines): 2950 nM; GI50 (A498): 4660 nM; GI50 (A549/ATCC): 3530 nM
COc1ccc2[nH]c(-c3cc(-c4cc(OC)c(OC)c(OC)c4)n[nH]3)nc2c1 [9f, 5-methoxy-2-(3-(3,4,5-trimethoxyphenyl)-1H-pyrazol-5-yl)-1H-benzo[d]imidazole]	2.5 µM	2.64 µM	1740 nM	1.74 µM	2900 nM	2.05 µM	1690 nM	1210 nM	2490 nM	340 nM	2.87 µM	1.9 µM	640 nM	2.74 µM	1490 nM	2.06 µM	2.47 µM	1.48 µM	1030 nM	1570 nM	GI50 (HT29): 2.76 µM; GI50 (OVCAR-4): 1240 nM; GI50 (SK-OV-3): 2.83 µM; GI50 (CCRF-CEM): 1290 nM; GI50 (COLO-205): 1.61 µM; GI50 (786-0): 2.92 µM; GI50 [2]: 2.04 µM; GI50 (SF-295): 1.62 µM; GI50 (TK-10): 2210 nM; GI50 (Breast Cancer cell lines): 1150 nM; GI50 (Leukemia cell lines): 1260 nM; GI50 (A498): 2230 nM; GI50 (A549/ATCC): 1630 nM
